Data on ten compounds can be found in patent US20250115577A1, “BCL-2 Inhibitors” (Eil Therapeutics, Inc., priority 2021, published 2025).

The target of data set [1] is BCL-xL (Homo sapiens (Human), UniProt Q07817). Nature of the data set: BCL-xL TR-FRET Assay (primary PPI inhibition). In kind it is binding. As to conditions: 60 min incubation, read-out: BCLxL IC50. As for the experimental part: Example B. BCL-xL TR-FRET Assay (BPS Bioscience, #50223)
The following assay concentrations and times were used: 10.5 ng of BCL-xL, 5 μL of 1:120 anti-His Tb-labeled donor, 5 μL of 1:120 Dye-labeled acceptor, 5 μL of 1:96 BCL-xL Peptide Ligand, 2 μL of 200× test compound, with 60 min incubation time (final concentration of DMSO 0.5%). The results of the assay were read using a plate reader with the following parameters: TR FRET, 340ex/620 and 665em; 60 usec Delay; and 500 usec integration.
(§1) Instrumentation: CLARIOstar Plus (BMG LABTECH); Biomek FX for liquid handling (Beckman Coulter).
In general terms: In TR-FRET formats the signal depends on donor and acceptor labels being close together.

Data set [2] has as its target BCL-2 (Homo sapiens (Human), UniProt P10415). Nature of the data set: BCL-2 TR-FRET Assay (primary PPI inhibition). It is filed as binding. As to conditions: 60 min incubation, read-out: BCL2 IC50. As to the method:
Example A. BCL-2 TR-FRET Assay (BPS Bioscience, #50222)
The following assay concentrations and times were used: 3 ng of BCL-2, 5 μL of 1:100 anti-His Tb-labeled donor, 5 μL of 1:100 Dye-labeled acceptor, 5 µL of 1:40 BCL-2 Peptide Ligand, and 2 μL of 200× test compound, with 60 min incubation time (final concentration of DMSO 0.5%). The results of the assay were read using a plate reader with the following parameters: TR FRET, 340ex/620 and 665em; 60 usec Delay; and 500 usec integration.
as §1

The subject of data set [3] is RS4-11 cells. Briefly: Cell viability assay (CellTiter-Glo), RS4-11. In kind it is cell-based. As to conditions: Homo sapiens, RS4-11, 72 h, 3 days of incubation. As for the experimental part:
(§2) Example D. Cell Viability Assays (Cell lines HEK293, RS4-11, MOLT-4)
(§3) Cells were seeded at a density of 4000 cells per well in the 384-well clear bottom plate (Greiner Cat #781090) to the 45 μL total volume of either DMEM (PanEco, Cat #C420, for HEK293) or RPMI (PanEco, Cat #C330, for other cell lines) with 10% FBS(HyClone Cat #SV30160.03). Prior to adding compounds, the HEK293 cells were allowed to adhere overnight at 37° C. and 5% CO2. The 500× compounds solutions in DMSO(Sigma Cat #D2650) were dispersed into a 384-well compound plate (Diamond Well Plate, Axigen, Cat #P-384-120 SQ-C—S) including only DMSO control. The 1 μL aliquots of the 500× compounds from the compound plate were added to 49 μL of culture medium in the Dilution plate (Diamond Well Plate, Axigen, Cat #P-384-120 SQ-C—S), mixed and then the 5 μL aliquts of the 10× compound solutions were transferred to cells followed by centrifugation at 100 g for 1 min. Final DMSO concentration was 0.2%. After 3 days of incubation the 10 μL aliquots of CellTiter-Glo (Promega, CAT #G7572) were added to the cells, plate was centrifuged at 100 g for 1 min and the luminescence was measured on the CLARIOstar Plus (BMG LABTECH) instrument.
as §1
(Cellular ATP, detected with luciferase, serves as a proxy for viable cell number.)

A short description of data set [4]: Cell viability assay (CellTiter-Glo), HEK293. In kind it is cell-based. As to conditions: human, HEK293 cells, 3 days of incubation. As for the experimental part: as §2, §3, §1
Data set [5] has as its system MOLT-4 cells. Briefly: Cell viability assay (CellTiter-Glo), MOLT-4. In kind it is cell-based. As to conditions: Homo sapiens, 72 h, 3 days of incubation. As for the experimental part: as §2, §3, §1
For data set [6], the system named is caspase-3 and -7 activities in RS4-11 cells. Nature of the data set: Caspase-3/7 activation (Caspase-Glo 3/7) in RS4-11 cells. As to conditions: Homo sapiens, 3.5 h, read-out: Cas-3/7 EC50. In kind it is cell-based. As to the method: Example E. Caspase-3/7 Activation
Assay Principle: The Caspase-Glo 3/7 Assay is homogeneous, luminescent assay that measures caspase-3 and -7 activities. The assay provides a luminogenic caspase-3/7 substrate, which contains the tetrapeptide sequence DEVD, in a reagent optimized for caspase activity.
Assay Procedure: Incubate RS4-11 (ATCC, CRL-1873) cells in the 384-well white plate (Corning, #3570) with varying concentrations of test compounds for 3.5 h in a humidified incubator at 37° C. and 5% CO2 […]. Add 15 μL of the Caspase-Glo (Promega, #8212) reagent to each well and to incubate the plate for 30 min at rt. Read on the CLARIOstar Plus (BMG LABTECH) instrument.
as §1

BCL-2, sequence (P10415 whole entry): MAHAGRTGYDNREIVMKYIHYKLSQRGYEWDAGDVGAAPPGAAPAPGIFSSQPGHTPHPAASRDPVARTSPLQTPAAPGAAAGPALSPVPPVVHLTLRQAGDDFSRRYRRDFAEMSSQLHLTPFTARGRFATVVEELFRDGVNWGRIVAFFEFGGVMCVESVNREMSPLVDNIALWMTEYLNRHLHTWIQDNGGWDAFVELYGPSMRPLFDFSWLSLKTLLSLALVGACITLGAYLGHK
BCL-xL, sequence (Q07817 whole entry): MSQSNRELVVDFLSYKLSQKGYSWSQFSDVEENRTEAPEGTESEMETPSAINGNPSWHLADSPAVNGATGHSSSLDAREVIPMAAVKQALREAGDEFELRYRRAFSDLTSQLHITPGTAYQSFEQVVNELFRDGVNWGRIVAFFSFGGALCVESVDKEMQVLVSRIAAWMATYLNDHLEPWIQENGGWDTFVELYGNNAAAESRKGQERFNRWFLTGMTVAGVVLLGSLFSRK

`Cc1c(C(=O)N(Cc2ccccc2C#N)c2ccc(O)cc2)cc(-c2cc(F)c(F)cc2C(=O)N2Cc3ccccc3C[C@H]2CN2CCOCC2)n1C` [Compound 53, N-[(2-cyanophenyl)methyl]-5-[4,5-difluoro-2-[(3S)-3-(morpholinomethyl)-3,4-dihydro-1H-isoquinoline-2-carbonyl]phenyl]-N-(4-hydroxyphenyl)-1,2-dimethyl-pyrrole-3-carboxamide]: the results for the IC50 in data set [1] and in data set [2] were 2 to 5 µM and 0.01 to 0.05 µM, respectively. Moreover, the CC50 (in general, the concentration that lowers cell viability or growth by half) was in the range of 0.1 to 0.2 µM in data set [3] and 5 to 10 µM in data set [5]. Besides, in data set [4], the CC50 at 3 days is over 25 µM. In addition, in data set [6], the EC50 was 0.2 to 0.5 µM.
For `COc1cccc(CN(C(=O)c2cc(-c3cc(C(F)F)c(Cl)cc3C(=O)N3Cc4ccccc4C[C@H]3CN3CCOCC3)n(C)c2C)c2ccc(C#N)cc2)c1C` [Compound 24, 5-[4-chloro-5-(difluoromethyl)-2-[(3S)-3-(morpholinomethyl)-3,4-dihydro-1H-isoquinoline-2-carbonyl]phenyl]-N-(4-cyanophenyl)-N-[(3-methoxy-2-methyl-phenyl)methyl]-1,2-dimethyl-pyrrole-3-carboxamide], the figures for the IC50 in data set [1] and in data set [2] were 2 to 5 µM and over 0.05 µM, respectively. Also, the cytotoxic concentration (CC50) in data set [3] is over 0.2 µM; in data set [5] it was over 10 µM. Besides, the cytotoxic concentration (CC50) at 3 days in data set [4] is over 25 µM. For the same compound, the EC50 in data set [6] is over 0.5 µM.
In the case of `COc1cccc(CN(C(=O)c2cc(-c3cc(Cl)c(OC(F)F)cc3C(=O)N3Cc4ccccc4C[C@H]3CN3CCOCC3)n(C)c2C)c2ccc(Cl)cc2)c1C` [Compound 32, 5-[5-chloro-4-(difluoromethoxy)-2-[(3S)-3-(morpholinomethyl)-3,4-dihydro-1H-isoquinoline-2-carbonyl]phenyl]-N-(4-chlorophenyl)-N-[(3-methoxy-2-methyl-phenyl)methyl]-1,2-dimethyl-pyrrole-3-carboxamide], the IC50 (usually the midpoint of a concentration-inhibition curve) in data set [1] was 2 to 5 µM; in data set [2], over 0.05 µM. For the same compound, the CC50 in data set [3] was over 0.2 µM; in data set [5], at most 5 µM. Besides, in data set [4], the CC50 at 3 days was over 25 µM. Also, in data set [6], the EC50 is over 0.5 µM.
Turning to `COc1cccc(CN(C(=O)c2cc(-c3cc(Cl)c(F)cc3C(=O)N3Cc4ccccc4C[C@H]3CN3CCOCC3)n(C)c2C)c2ccc(O)cc2)c1C` [Compound 27, 5-[5-chloro-4-fluoro-2-[(3S)-3-(morpholinomethyl)-3,4-dihydro-1H-isoquinoline-2-carbonyl]phenyl]-N-(4-hydroxyphenyl)-N-[(3-methoxy-2-methyl-phenyl)methyl]-1,2-dimethyl-pyrrole-3-carboxamide], the half-maximal inhibitory concentration (IC50) in data set [1] was 2 to 5 µM; in data set [2], 0.01 to 0.05 µM. The CC50 in data set [3] was 0.1 to 0.2 µM; in data set [5], at most 5 µM. For the same compound, in data set [4], the half-maximal cytotoxic concentration (CC50) at 3 days is over 25 µM. The EC50 in data set [6] was in the range of 0.2 to 0.5 µM.
On to `COc1cc(-c2cc(C(=O)N(Cc3ccccc3OC)c3ccc(Cl)cc3)c(C)n2C)c(C(=O)N2Cc3ccccc3C[C@H]2CN2CCOCC2)cc1C#N` [Compound 56, N-(4-chlorophenyl)-5-[4-cyano-5-methoxy-2-[(3S)-3-(morpholinomethyl)-3,4-dihydro-1H-isoquinoline-2-carbonyl]phenyl]-N-[(2-methoxyphenyl)methyl]-1,2-dimethyl-pyrrole-3-carboxamide], for which the concentration for half-maximal inhibition (IC50) in data set [1] is 2 to 5 µM; in data set [2] it was over 0.05 µM. For the same compound, the CC50 is over 0.2 µM in data set [3] and at most 5 µM in data set [5]. For the same compound, in data set [4], the half-maximal cytotoxic concentration (CC50) at 3 days is at most 10 µM. Also, the EC50 in data set [6] was over 0.5 µM.
As for `COc1cccc(CN(C(=O)c2cc(-c3ccc(OC(F)F)cc3C(=O)N3Cc4ccccc4C[C@H]3CN3CCOCC3)n(C)c2C)c2ccc(Cl)cc2)c1C` [Compound 12, N-(4-chlorophenyl)-5-[4-(difluoromethoxy)-2-[(3S)-3-(morpholinomethyl)-3,4-dihydro-1H-isoquinoline-2-carbonyl]phenyl]-N-[(3-methoxy-2-methyl-phenyl)methyl]-1,2-dimethyl-pyrrole-3-carboxamide], the IC50 was 2 to 5 µM in data set [1] and over 0.05 µM in data set [2]. For the same compound, the cytotoxic concentration (CC50) in data set [3] was over 0.2 µM; in data set [5], at most 5 µM. The compound further yielded a cytotoxic concentration (CC50) at 3 days in data set [4] of over 25 µM. Moreover, in data set [6], the EC50 is over 0.5 µM.
`COc1cccc(CN(C(=O)c2cc(-c3cc(F)c(OC(F)F)cc3C(=O)N3Cc4ccccc4C[C@H]3CN3CCOCC3)n(C)c2C)c2ccc(Cl)cc2)c1C` [Compound 26, N-(4-chlorophenyl)-5-[4-(difluoromethoxy)-5-fluoro-2-[(3S)-3-(morpholinomethyl)-3,4-dihydro-1H-isoquinoline-2-carbonyl]phenyl]-N-[(3-methoxy-2-methyl-phenyl)methyl]-1,2-dimethyl-pyrrole-3-carboxamide]: the half-inhibitory concentration (IC50) in data set [1] was 2 to 5 µM; in data set [2], over 0.05 µM. The results for the cytotoxic concentration (CC50) in data set [3] and in data set [5] were over 0.2 µM and at most 5 µM, respectively. Besides, in data set [4], the CC50 at 3 days was over 25 µM. In addition, the EC50 in data set [6] was over 0.5 µM.
As for `COc1ccccc1CN(C(=O)c1cc(-c2cc(C#N)ccc2C(=O)N2Cc3ccccc3C[C@H]2CN2CCOCC2)n(C)c1C)c1ccc(O)cc1` [Compound 55, 5-[5-cyano-2-[(3S)-3-(morpholinomethyl)-3,4-dihydro-1H-isoquinoline-2-carbonyl]phenyl]-N-(4-hydroxyphenyl)-N-[(2-methoxyphenyl)methyl]-1,2-dimethyl-pyrrole-3-carboxamide], the IC50 is at most 2 µM in data set [1] and 0.005 to 0.01 µM in data set [2]. Besides, the cytotoxic concentration (CC50) was 0.1 to 0.2 µM in data set [3] and at most 5 µM in data set [5]. Further, the CC50 at 3 days in data set [4] is over 25 µM. In addition, the EC50 in data set [6] is 0.2 to 0.5 µM.
As for `Cc1c(C(=O)N(Cc2ccccc2C#N)c2ccc(O)cc2)cc(-c2cc([N+](=O)[O-])ccc2C(=O)N2Cc3ccccc3C[C@H]2CN2CCOCC2)n1C` [Compound 62, N-[(2-cyanophenyl)methyl]-N-(4-hydroxyphenyl)-1,2-dimethyl-5-[2-[(3S)-3-(morpholinomethyl)-3,4-dihydro-1H-isoquinoline-2-carbonyl]-5-nitro-phenyl]pyrrole-3-carboxamide], the IC50 was over 5 µM in data set [1] and at most 0.005 µM in data set [2]. For the same compound, the values for the CC50 in data set [3] and in data set [5] were at most 0.1 µM and at most 5 µM, respectively. In data set [4], this compound displayed a cytotoxic concentration (CC50) at 3 days of over 25 µM. In addition, the EC50 in data set [6] is at most 0.2 µM.
For the compound `COc1cccc(CN(C(=O)c2cc(-c3cc(C(N)=O)ccc3C(=O)N3Cc4ccccc4C[C@H]3CN3CCOCC3)n(C)c2C)c2ccc(O)cc2)c1C` [Compound 64, 5-[5-carbamoyl-2-[(3S)-3-(morpholinomethyl)-3,4-dihydro-1H-isoquinoline-2-carbonyl]phenyl]-N-(4-hydroxyphenyl)-N-[(3-methoxy-2-methyl-phenyl)methyl]-1,2-dimethyl-pyrrole-3-carboxamide], the half-maximal inhibitory concentration (IC50) in data set [1] is over 5 µM; in data set [2], at most 0.005 µM. The values for the cytotoxic concentration (CC50) in data set [3] and in data set [5] were at most 0.1 µM and over 10 µM, respectively. In addition, the CC50 at 3 days in data set [4] was over 25 µM. Moreover, the EC50 in data set [6] was over 0.5 µM.
